Results as given in paper PMC9370035, “Identification of 3-Oxindole Derivatives as Small Molecule HIV-1 Inhibitors Targeting Tat-Mediated Viral Transcription” (Molecules, 2022).

What was measured:
HIV-1 integrase = target: T1, HIV-1 integrase (Human immunodeficiency virus type 1 group M subtype B, UniProt P04585); experiment: HIV-1 integrase assay kit; format: biochemical; conditions: 10 μM
T1 construct: purchased XpressBio, Frederick, MD, USA
Method: The integrase activity was determined using an HIV-1 integrase assay kit (XpressBio, Frederick, MD, USA), according to the manufacturer’s protocols. In brief, a 96-well plate coated with donor substrate (DS) DNA was blocked with blocking buffer for 30 min at 37 °C. One hundred μL of HIV-1 integrase diluted with 1:300 onto reaction buffer was added to the plate, and the plate was then incubated for 30 min at 37 °C. Subsequently, 50 μL of compounds were added to the plate at final concentrations of 10 and 20 μM. At 5 min after addition of compounds, 50 μL of target substrate DNA diluted at 1:100 was added to the plate and incubated for 30 min at 37 °C. The plate was washed and then incubated with 100 μL of horse radish peroxidase antibody solution for 30 min at 37 °C. Integrase activity was assessed by measuring the peroxidase activity reacted with 3,3′,5,5′-tetramethylbenzidine substrate at optical density […]. The experiment was performed in triplicate.

HIV-1NL4-3 [1] = experiment: HIV-1 replication assay (p24 […]) in A3.01 T cell line; format: cell-based; conditions: A3.01 cells, HIV-1NL4-3 MOI 0.1, 1.5 μM, 72 h
Method: (§1) TZM-bl cells (also referred as JC53BL-13) expressing human CD4, CXCR4, and CCR5 in order to facilitate HIV-1 infection, which contain the firefly luciferase (F-Luc) gene under the control of HIV-1 long terminal repeat (LTR) promoter was used to determine inhibitory effect of the compounds on HIV-1 infection, as described previously with minor modifications. In brief, 1 × 10^4 cells were cultured in 96-well plates for 24 h and then treated with compounds at a final concentration of 3 μM (Figure 1A) or with 1:2 serially diluted compounds at concentrations ranging from 0 to 25 μM (dose-response assay; Figure 1B and Table 2). Without replacement of a culture medium, the cells were then infected with the HIV-1NL4-3 strain at a multiplicity of infection (MOI) of 1 to determine the exact inhibitory effect of compounds on a single round infection. After 48 h, the inhibitory effect of the compounds was determined using a Bright Glo luciferase assay kit (Promega). The infectivity data are presented as a percentage relative to the DMSO control (vehicle). The inhibitory effects of the compounds on viral replication were determined with some minor modifications, as described previously. In brief, 5 × 10^4 cells/ well of A3.01 cells were infected with HIV-1NL4-3 at an MOI of 0.1 with the spinoculation at 300 g for 2 h at 25 °C. PBMCs were pre-activated with phytohemagglutinin M (PHA-M) for 3 days. The pre-activated 4 × 10^5 of PBMCs were washed with fresh media to remove excess PHA-M and then infected with HIV-1NL4-3 or HIV-1AD8 as that of A3.01 infection. After infection, the infectious media were replaced with fresh media (supplemented with international 10 units (IU)/mL of IL-2 for PBMCs containing 1.5 μM of compounds. At 72 h after infection, the inhibitory effect of the compounds on viral replication was determined by measuring the amount of p24, an HIV capsid protein, using an HIV-1 p24 […]™ kit (PerkinElmer, Waltham, MA, USA). Cell viability was determined by using the resazurin-based PrestoBlue™ cell viability reagent (Thermo Fisher Scientific, Waltham, MA, USA) according to the manufacturer’s protocols.

HIV-1NL4-3 [2] = experiment: HIV-1 infectivity assay in TZM-bl cells (F-Luc under HIV-1 LTR); format: cell-based; conditions: for inhibition at 3 µM / IC50: Human immunodeficiency virus 1, NL43, TZM-bl; for inhibition at 3 µM: 48 h, read-out: Inhibition of HIV-1 Infectivity (%), TZM-bl cells, 3 μM, HIV-1 NL4-3 at MOI of 1, 48 h; for Inhibition ratio of HIV-1 infectivity, dose response / Inhibition of HIV-1 Infectivity (%): TZM-bl cells; for Inhibition ratio of HIV-1 infectivity, dose response: HIV-1NL4-3, up to a concentration of 25 μM; for IC50: read-out: IC50 (inhibition of HIV-1 infection); for Inhibition of HIV-1 Infectivity (%): 3 μM, HIV-1 NL4-3 at MOI of 1, 48 h
Text: TZM-bl cells (also referred as JC53BL-13) expressing human CD4, CXCR4, and CCR5 in order to facilitate HIV-1 infection, which contain the firefly luciferase (F-Luc) gene under the control of HIV-1 long terminal repeat (LTR) promoter was used to determine inhibitory effect of the compounds on HIV-1 infection, as described previously with minor modifications. […] Without replacement of a culture medium, the cells were then infected with the HIV-1NL4-3 strain at a multiplicity of infection (MOI) of 1 to determine the exact inhibitory effect of compounds on a single round infection. After 48 h, the inhibitory effect of the compounds was determined using a Bright Glo luciferase assay kit (Promega). The infectivity data are presented as a percentage relative to the DMSO control (vehicle). The inhibitory effects of the compounds on viral replication were determined with some minor modifications, as described previously. […] PBMCs were pre-activated with phytohemagglutinin M (PHA-M) for 3 days. The pre-activated 4 × 10^5 of PBMCs were washed with fresh media to remove excess PHA-M and then infected with HIV-1NL4-3 or HIV-1AD8 as that of A3.01 infection.

HIV-1NL4-3 [3] = experiment: HIV-1 replication assay (p24 […]) in PBMCs, CXCR4 tropic strain; format: cell-based; conditions: HIV-1NL4-3 MOI 0.1, 1.5 μM, 72 h
Method: as §1

[4] = Cell viability (resazurin-based PrestoBlue) in parallel with infectivity assay; conditions: human, TZM-bl cells; for viability at 48 h, 3 µM: with infection of HIV-1 NL4-3 at MOI of 1; for CC50 at 48 h: serial dilution starting from 100 μM, read-out: CC50 (concentration that reduces cell viability by 50%)
[5] = system: Tat-mediated HIV-1 transcription; experiment: microbe, parasite or virus in culture; format: cell-based; conditions: for Tat-induced transcriptional activity (F-Luc) / Inhibition of Tat-induced HIV-1 transcription, concentration response: bl-DTR cells; for Tat-induced transcriptional activity (F-Luc): 3 μM, doxycycline 50 ng/mL, 24 h; for Inhibition of Tat-induced HIV-1 transcription, concentration response: 0 to 25 μM
Method: (§2) bl-DTR (TZM-bl-derived dual Tat reporter) cells derived from TZM-bl cells by insertion of two doxycycline-inducible lentiviral vector-expressing flag-tagged tat and Renilla-luciferase (R-Luc) genes were used to determine simultaneously both activities of Tat-mediated HIV-1 transcription and general cellular transcription, as described previously. Determination of the inhibitory effect of the compounds on Tat-mediated transcription was performed as described previously. In brief, 1 × 10^4 of bl-DTR cells cultured in 96-well plates were treated with compounds at a final concentration of 3 μM (Figure 3C) or with 1:2 serially diluted compounds at concentrations ranging from 0 to 25 μM (Figure 4 and Table 3). Subsequently, doxycycline was treated at a final concentration of 50 ng/mL to induce Tat-mediated F-Luc and R-Luc. At 24 h after treatment, the activities of F-Luc and R-Luc were determined by using a Dual-Glo™ luciferase assay system (Promega, Madison, WI, USA) according to the manufacturer’s protocols. The data are presented as a percentage relative to the DMSO control (vehicle) in the presence of doxycycline, and the experiment was performed in triplicate.

TZM-bl cells = experiment: Cell viability (resazurin-based PrestoBlue) in parallel with infectivity assay; conditions: 3 μM, with infection of HIV-1 NL4-3 at MOI of 1
[6] = system: general cellular transcription; experiment: R-Luc activity in bl-DTR cells (general cellular transcription); format: cell-based; conditions: high dosages (12.5 μM and 25 μM)
Method: as §2

C[C@@H]1CCO[C@H]2Cn3cc(C(=O)NCc4ccc(F)cc4F)c(=O)c(O)c3C(=O)N12 [DOL, dolutegravir]
Inhibition of integrase activity (HIV-1 integrase): inhibited

C=CCC1(C(=O)OC)Nc2cc(C)cc(C)c2C1=O (stereo not drawn) [Compound 6h, Methyl 2-allyl-4,6-dimethyl-3-oxindole-2-carboxylate]
Inhibitory effect on viral replication (p24) (HIV-1NL4-3 [1]): no inhibition
inhibition at 3 µM (HIV-1NL4-3 [2]): 23.6 ± 4.46%
Inhibition ratio of HIV-1 infectivity, dose response (HIV-1NL4-3 [2]): did not show further increased inhibitory effect
Inhibitory effect on viral replication (p24) (HIV-1NL4-3 [3]): no inhibition
melting point: 147 °C
viability at 48 h, 3 µM [4]: 107 ± 4.73%

CCOC(=O)C1(C/C=C/Cl)Nc2cccc(C)c2C1=O (stereo not drawn) [Compound 6a, Ethyl (E)-2-(3-chloroallyl)-4-methyl-3-oxindole-2-carboxylate]
Inhibitory effect on viral replication (p24) (HIV-1NL4-3 [1]): no inhibition
inhibition at 3 µM (HIV-1NL4-3 [2]): ~20%
IC50 (HIV-1NL4-3 [2]): 13.7 ± 2.55 µM
Inhibitory effect on viral replication (p24) (HIV-1NL4-3 [3]): no inhibition
IC50 ([5]; Human immunodeficiency virus 1, 24 h, read-out: IC50 (inhibition of Tat-mediated HIV-1 transcription)): 9.53 ± 0.48 µM
melting point: > 300 °C
viability at 48 h, 3 µM [4]: 106 ± 9.33%
CC50 at 48 h [4]: 87.4 ± 12.7 µM

Cc1cn([C@H]2C[C@H](N=[N+]=[N-])[C@@H](CO)O2)c(=O)[nH]c1=O [AZT, azidothymidine, reference compound]
inhibition at 3 µM (HIV-1NL4-3 [2]): 99.65 ± 0.048%
IC50 (HIV-1NL4-3 [2]): 0.079 ± 0.0237 µM
viability at 48 h, 3 µM [4]: 94.8 ± 7.21%
CC50 at 48 h [4]: > 100 µM

Methyl (E)-2-(3-chloroallyl)-3-oxindole-2-carboxylate [Compound 6e]
Inhibition of HIV-1 Infectivity (%) (HIV-1NL4-3 [2]): 11.49 ± 5.66%
Cell Viability (%) (TZM-bl cells): 95.66 ± 7.32%

CC(C)[C@]12O[C@H]1[C@@H]1O[C@]13[C@]1(O[C@H]1C[C@H]1C4=C(CC[C@@]13C)C(=O)OC4)[C@@H]2O [triptolide, reference compound]
Tat-induced transcriptional activity (F-Luc) [5]: specific inhibition

CCCC1(C(=O)OC)Nc2cc(C)cc(C)c2C1=O (stereo not drawn) [Compound 6i, Methyl 4,6-dimethyl-3-oxo-2-propylindoline-2-carboxylate]
Inhibitory effect on viral replication (p24) (HIV-1NL4-3 [1]): no inhibition
inhibition at 3 µM (HIV-1NL4-3 [2]): 9.15 ± 0.96%
Inhibitory effect on viral replication (p24) (HIV-1NL4-3 [3]): no inhibition
melting point: 132 to 133 °C
viability at 48 h, 3 µM [4]: 99.4 ± 8.83%

CCCC1(C(=O)OC)Nc2ccc(OC)cc2C1=O (stereo not drawn) [Compound 6c, Methyl 5-methoxy-3-oxo-2-propylindoline-2-carboxylate]
inhibition at 3 µM (HIV-1NL4-3 [2]): 16.2 ± 5.52%
melting point: 117 to 118 °C
viability at 48 h, 3 µM [4]: 92.7 ± 5.77%

COC(=O)c1[nH]c2ccc(OC)cc2c1OC/C=C/Cl [Compound 7b, methyl (e)-3-((3-chloroallyl)oxy)-5-methoxy-1h-indole-2-carboxylate]
inhibition at 3 µM (HIV-1NL4-3 [2]): ~20%
Inhibition ratio of HIV-1 infectivity, dose response (HIV-1NL4-3 [2]): ~50%
Inhibition of Tat-induced HIV-1 transcription, concentration response [5]: do not affect
melting point: > 300 °C
viability at 48 h, 3 µM [4]: 110 ± 4.96%

Cc1nnc(C(=O)NC(C)(C)c2nc(C(=O)NCc3ccc(F)cc3)c(O)c(=O)n2C)o1 [RAL, raltegravir]
Inhibition of integrase activity (HIV-1 integrase): inhibited

CCOC(=O)c1[nH]c2cccc(C)c2c1OC/C=C/Cl [Compound 7a, ethyl (e)-3-((3-chloroallyl)oxy)-4-methyl-1h-indole-2-carboxylate]
inhibition at 3 µM (HIV-1NL4-3 [2]): ~20%
Inhibition ratio of HIV-1 infectivity, dose response (HIV-1NL4-3 [2]): ~50%
Inhibition of Tat-induced HIV-1 transcription, concentration response [5]: do not affect
melting point: 226 °C
viability at 48 h, 3 µM [4]: 117 ± 2.7%

COC(=O)C1(C/C=C/Cl)Nc2ccc(OC)cc2C1=O (stereo not drawn) [Compound 6b, Methyl (E)-2-(3-chloroallyl)-5-methoxy-3-oxindole-2-carboxylate]
Inhibitory effect on viral replication (p24) (HIV-1NL4-3 [1]): no inhibition
inhibition at 3 µM (HIV-1NL4-3 [2]): 0.55 ± 4.34%
Inhibitory effect on viral replication (p24) (HIV-1NL4-3 [3]): no inhibition
melting point: > 300 °C
viability at 48 h, 3 µM [4]: 99.6 ± 14.2%

Methyl (E)-2-(3-chloroallyl)-5-methyl-3-oxindole-2-carboxylate [Compound 6d]
Inhibition of HIV-1 Infectivity (%) (HIV-1NL4-3 [2]): 0.00 ± 10.66%
Inhibition of Tat-induced HIV-1 transcription, concentration response [5]: did not inhibit
Cell Viability (%) (TZM-bl cells): 96.96 ± 9.15%

CC[C@H](CO)Nc1nc(NCc2ccccc2)c2ncn(C(C)C)c2n1 [seliciclib, Seliciclib, reference compound]
R-Luc activity [6]: decrease in R-Luc activity
Tat-induced transcriptional activity (F-Luc) [5]: specific inhibition
